Measurements: US20220155322A1, “USE OF NATRIURETIC PEPTIDES TO ASSESS AND TREAT ACUTE KIDNEY INJURY” (Mayo Foundation for Medical Education and Research, priority 2019, published 2022)

How the values were obtained:
Format in all cases: cell-based
[1] = test system: human primary renal proximal tubular epithelial cells (HRPTC); test: Oil immersion induced hypoxia/reoxygenation (H/R) apoptosis, Caspase 3/7 IncuCyte live imaging
Experimental: Oil Immersion Induced Hypoxia/Reoxygenation in vitro: HRPTC (ScienCell Research Laboratories; Carlsbad, Calif.) were seeded in 96-well plates and cultured for 1 day until 70-80% confluence. Passages 3-5 were used for experiments. Caspase 3/7 green apoptosis assay agent (Essen BioScience; Ann Arbor, Mich.) was added to the culture medium for detection of apoptosis. Plates were then transferred to a time-lapsed, live imaging system IncuCyte (Essen BioScience) for apoptosis monitoring for a total of 24 hours. H/R in cells was mimicked with mineral oil (Sigma, St Louis, Mo.) immersion (Meldrum et al., J Surg Res, 99:288-293, 2001). Cells were immersed in oil for 2 hours, washed twice, and placed in fresh medium containing vehicle (H/R group) or drugs. ANP, BNP, and CRRL269 were used at concentrations of 10^−8, 10^−7, or 10^−6 M. PKG (an important cGMP binding protein) activating analogue 8-pCPT-cGMP (Sigma; St. Louis, Mo.), which is specific for PKG and has low affinity for phosphodiesterases, was used at concentrations of 10^−6, 10^−5, or 10^−4 M. Cells were treated with 10^−6-, 5×10^−6-, or 1.5×10^−5 M PKG inhibitor KT-5823 (Abcam; Cambridge, Mass.) for 30 minutes before 10^−6 M CRRL269 was added. Cells without H/R stimulation were labeled as the negative control (Neg Ctrl) group. Apoptosis signals (e.g., apoptosis object counts) were analyzed with software provided by IncuCyte.

[2] = test system: human primary aortic vascular smooth muscle cells (HASMC); test: Intracellular calcium under ANGII stimulation (Fura-2); settings: pretreatment at 10^−9 or 10^−7 M for 5 minutes, ANGII 10^−8 or 10^−7 M
Experimental: Measurements of Intracellular Calcium in Vascular Smooth Muscle Cells: HASMC (ScienCell Research Laboratories; Carlsbad, Calif.) were cultured and maintained as instructed by the manufacturer. Cells at passage 4 or 5 were used for experiments. Calcium imaging was performed as described elsewhere (Chai et al., Cardiovasc Res, 100:151-159, 2013). Briefly, cells were seeded on a 25 mm round cover glass (Fisher Scientific; Pittsburgh, Pa.) at a density of 5×10^4 cells per slide. The slides had been pretreated with 0.5 N NaOH for 8 hours, rinsed with water, and sterilized before use. After overnight culturing, the slides with cells were assembled in a MS-02 Chamber (ALA Scientific Instrument; Farmingdale, N.Y.) and loaded with 3 μM fura-2 AM (Invitrogen; Carlsbad, Calif.) for 30 minutes in a 37° C. incubator. The chamber was then placed on the stage of an inverted Olympus IX71 microscope (Olympus America Inc.; Waltham, Mass.). The cells were maintained in 1 mL HASMC medium and treated with or without ANP, BNP, or CRRL269 at concentration of 10^−9 or 10^−7 M for 5 minutes before perfused with 5 mL medium containing ANGII (10^−8 or 10^−7 M). Intracellular Ca2^+ fluorescence signals were measured as a ratio of fluorescence intensities at 510 nm from excitations of 340/380 nm, using a Hamamatsu ORCA-R2 CCD camera with a Sutter LB-LS/17 light source. Baseline fluorescence was recorded after 5 minutes of treatment, and fluorescence images were acquired continuously during the ANGII perfusion. Background fluorescence was subtracted and the calcium signal (F) was normalized to baseline fluorescence (FO) and expressed as a ratio (F/FO) using MetaFluor software (Olympus America Inc.).

[3] = test system: human renal fibroblasts (HRF); test: Human renal fibroblast proliferation by cell counting; settings: CNP at 10^−7 M every 24 hours, cell count at 72 hours
Experimental: Human Renal Fibroblasts Proliferation by Cell Counting: Human renal fibroblasts (HRF, Cell Biologics; Chicago, Ill.) were counted and seeded into 48-well plates with complete medium, and then incubated at 37° C., 5% CO2 overnight. The culture medium was replaced with fresh medium containing PBS or CNP at concentrations of 10^−8 or 10^−7 M, and cells were cultured for 72 hours. Fresh CNP was added at 24 and 48 hours. At 72 hours, HRF were trypsinized, stained with 0.2% trypan blue, and counted using a Cedex XS Analyzer (Roche; Indianapolis, Ind.).

With COC(=O)[C@@]1(OC)C[C@H]2O[C@]1(C)n1c3ccccc3c3c4c(c5c6ccccc6n2c5c31)C(=O)N(C)C4 [KT-5823, reference compound] the “effect on antiapoptotic effects induced by CRRL269” value ([1]; HRPTC, H/R, KT-5823 30 minutes before 10^−6 M CRRL269) was “abrogated”.

For CC[C@H](C)[C@@H]1NC(=O)[C@H](CCCNC(=N)N)NC(=O)[C@H](CC(=O)O)NC(=O)[C@H](CCSC)NC(=O)[C@H](CCCNC(=N)N)NC(=O)CNC(=O)CNC(=O)[C@H](Cc2ccccc2)NC(=O)[C@@H](NC(=O)[C@H](CO)NC(=O)[C@H](CO)NC(=O)[C@H](CCCNC(=N)N)NC(=O)[C@H](CCCNC(=N)N)NC(=O)[C@H](CC(C)C)NC(=O)[C@@H](N)CO)CSSC[C@@H](C(=O)N[C@@H](CC(N)=O)C(=O)N[C@@H](CO)C(=O)N[C@@H](Cc2ccccc2)C(=O)N[C@@H](CCCNC(=N)N)C(=O)N[C@@H](Cc2ccc(O)cc2)C(=O)O)NC(=O)CNC(=O)[C@H](CC(C)C)NC(=O)CNC(=O)[C@H](CO)NC(=O)[C@H](CCC(N)=O)NC(=O)[C@H](C)NC(=O)CNC1=O [ANP, atrial natriuretic peptide, reference compound], the “Ca2^+ enhancement by ANGII in HASMC” value [2] was “suppressed”.

“B-type natriuretic peptide [BNP, reference compound]” was tested, and the “Ca2^+ enhancement by ANGII in HASMC” value [2] was “suppressed”.

With “C-type natriuretic peptide (GLSKGCFGLKLDRIGSMSGLGC; listed as Homo sapiens) [CNP]” the “human renal fibroblast (HRF) proliferation” value [3] was “suppressed”.

Nc1nc2c(nc(Sc3ccc(Cl)cc3)n2C2O[C@@H]3COP(=O)(O)O[C@H]3[C@H]2O)c(=O)[nH]1 (stereo in doubt) [8-pCPT-cGMP, reference compound] was tested, and the “apoptosis inhibition in HRPTC after H/R” value ([1]; 8-pCPT-cGMP at 10^−6 and 10^−5 M) was “mimicked the apoptosis inhibition”.
